Test system: HepG2 (human liver cancer) cells
Assay: MTT cytotoxicity assay, HepG2
Assay type: cell-based
Settings: 72 h, 3 days, read-out: Means of IC50
Procedure: Pomiferin is dissolved in DMSO at a final concentration of 100 mmol/L and stored at −20° C. Cytotoxicity is assessed using the 3-(4,5-dimethylthiazol-2-yl)-2,5-diphenyltetrazolium bromide assay. 4000-8000 HeLa (human cervical cancer), MCF-7 (human breast cancer), HepG2 and Hep3B (human liver cancer), H1299 and A549 (human lung cancer), LNCap (human prostate cancer) and LLC-1 (mouse Lewis lung carcinoma) cells are seeded on 96-well plates per well. After overnight pre-incubation, the cells are exposed to different concentrations of pomiferin ([…]) for 3 days. Subsequently, 10 μL of MTT reagents is added to each well and incubated at 37° C. for 4 hours followed by the addition of 100 μL solubilization buffer (10% SDS in 0.01 mol/L HCl) and overnight incubation. Absorbance at 585 nm is determined from each well the next day. The percentage of cell viability is calculated using the following formula: Cell viability (%)=Cells number treated/Cells number DMSO control×100. Data are obtained from three independent experiments.

With `CC(C)=CCc1c2c(c3occ(-c4ccc(O)c(O)c4)c(=O)c3c1O)C=CC(C)(C)O2` [pomiferin] the IC50 was 13.6 µM.
